Legend:
Assay in all cases: relative viability (nuclei count vs DMSO), 5 days (fraction); higher = more cells survive
[1] = compound: CO[C@H]1C[C@@H]2CC[C@@H](C)[C@@](O)(O2)C(=O)C(=O)N2CCCC[C@H]2C(=O)O[C@H]([C@H](C)C[C@@H]2CC[C@@H](OCCO)[C@H](OC)C2)CC(=O)[C@H](C)/C=C(\C)[C@@H](O)[C@@H](OC)C(=O)[C@H](C)C[C@H](C)/C=C/C=C/C=C/1C [Everolimus] + CC(C)C[C@H](NC(=O)[C@H](Cc1ccccc1)NC(=O)c1cnccn1)B(O)O [Bortezomib] (partner 0.002 µM)
How it was run: (§1)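 Relative viability is defined as nuclei in treated wells over nuclei in vehicle wells. Duplicate plates were run and medians reported. Lung cancer cell lines in 1536-well plates were dosed by pin tool one day after seeding, with one drug or with a fixed anchor-drug dose plus five library-drug doses (not always all listed) in √10 steps, and nuclei were counted after 5 days.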

[2] = compound: CO[C@H]1C[C@@H]2CC[C@@H](C)[C@@](O)(O2)C(=O)C(=O)N2CCCC[C@H]2C(=O)O[C@H]([C@H](C)C[C@@H]2CC[C@@H](OCCO)[C@H](OC)C2)CC(=O)[C@H](C)/C=C(\C)[C@@H](O)[C@@H](OC)C(=O)[C@H](C)C[C@H](C)/C=C/C=C/C=C/1C [Everolimus] + CC(=O)c1c(C)c2cnc(Nc3ccc(N4CCNCC4)cn3)nc2n(C2CCCC2)c1=O [Palbociclib] (partner 0.5 µM)
How it was run: as §1

[3] = compound: CO[C@H]1C[C@@H]2CC[C@@H](C)[C@@](O)(O2)C(=O)C(=O)N2CCCC[C@H]2C(=O)O[C@H]([C@H](C)C[C@@H]2CC[C@@H](OCCO)[C@H](OC)C2)CC(=O)[C@H](C)/C=C(\C)[C@@H](O)[C@@H](OC)C(=O)[C@H](C)C[C@H](C)/C=C/C=C/C=C/1C [Everolimus] + CCNC(=O)c1noc(-c2cc(C(C)C)c(O)cc2O)c1-c1ccc(CN2CCOCC2)cc1 [Luminespib] (partner 0.01 µM)
How it was run: as §1

[4] = compound: CO[C@H]1C[C@@H]2CC[C@@H](C)[C@@](O)(O2)C(=O)C(=O)N2CCCC[C@H]2C(=O)O[C@H]([C@H](C)C[C@@H]2CC[C@@H](OCCO)[C@H](OC)C2)CC(=O)[C@H](C)/C=C(\C)[C@@H](O)[C@@H](OC)C(=O)[C@H](C)C[C@H](C)/C=C/C=C/C=C/1C [Everolimus] + Cc1nc(Nc2ncc(C(=O)Nc3c(C)cccc3Cl)s2)cc(N2CCN(CCO)CC2)n1 [Dasatinib] (partner 0.075 µM)
How it was run: as §1

Cell Line	relative viability ([1]; first compound 0.01 µM)	relative viability ([1]; first compound 0.03162 µM)	relative viability ([1]; first compound 0.1 µM)	relative viability ([1]; first compound 0.3162 µM)	relative viability ([1]; first compound 1 µM)	relative viability ([2]; first compound 0.01 µM)	relative viability ([2]; first compound 0.03162 µM)	relative viability ([2]; first compound 0.1 µM)	relative viability ([2]; first compound 0.3162 µM)	relative viability ([2]; first compound 1 µM)	relative viability ([3]; first compound 0.01 µM)	relative viability ([3]; first compound 0.03162 µM)	relative viability ([3]; first compound 0.1 µM)	relative viability ([3]; first compound 0.3162 µM)	relative viability ([3]; first compound 1 µM)	relative viability ([4]; first compound 0.01 µM)	relative viability ([4]; first compound 0.03162 µM)	relative viability ([4]; first compound 0.1 µM)	relative viability ([4]; first compound 0.3162 µM)	relative viability ([4]; first compound 1 µM)
COR-L 105	0.593	0.476	0.445	0.565	0.584	0.465	0.368	0.365	0.344	0.343	0.405	0.392	0.333	0.313	0.365	0.25	0.262	0.211	0.253	0.233
LK-2						0.536	0.312	0.321	0.314	0.33	0.179		0.171	0.177	0.189	0.231		0.239	0.209	0.306
NCI-H727	0.513	0.546	0.434	0.597	0.52	0.642	0.529	0.725	0.613	0.643	0.47	0.372		0.345	0.365	0.242	0.317		0.445	0.276
RERF-LC-KJ	0.92	0.621	0.731	0.64	0.611	0.88	0.674	0.644	0.588	0.511	0.895	0.834	0.807	0.848	0.646	0.589	0.573	0.483	0.549	0.457
NCI-H2023	0.667	0.527	0.534	0.615	0.335	0.176	0.139	0.151	0.129	0.129	0.309	0.269	0.413	0.266	0.219	0.343	0.301	0.243	0.239	0.222
NCI-H322M	0.974	0.995	1.01	0.939	0.948	0.473	0.454	0.409	0.47	0.424	0.579	0.568	0.387	0.554	0.543	0.243	0.245	0.245	0.243	0.244
NCI-H1666	0.644	0.527	0.494	0.56	0.533	0.567	0.642	0.599	0.693	0.631	0.898	0.964	0.909	0.98	0.929	0.826	0.722	0.795	0.78	0.813
SW 900						0.445	0.331	0.406	0.383	0.318	0.173	0.174	0.165	0.154	0.169	0.571	0.345	0.34	0.45	0.335
NCI-H2087	0.699	0.957	0.625	0.75	0.837	0.235	0.195	0.163	0.217	0.245	0.168	0.205	0.146	0.143	0.15	0.748	0.648	0.695	0.786	0.667
LU99A	0.647	0.599	0.543	0.568	0.614	0.242	0.237	0.234	0.203	0.243	0.226	0.204	0.185	0.191	0.253	0.452	0.499	0.439	0.284	0.35
HCC-366	1.02	1.07	0.983	0.878	0.772	0.337	0.156	0.216	0.207	0.106						0.459	0.593	0.477	0.46	0.354
EKVX	0.636	0.721	0.631	0.558	0.6		0.217	0.188	0.2	0.237	0.623	0.475	0.336	0.447	0.425	0.539	0.435	0.419	0.366	0.287
NCI-H2342						0.48	0.407	0.493	0.44	0.463	0.668	0.496	0.426	0.46	0.553	0.274	0.323	0.277	0.262	0.319
NCI-H1755	0.785	0.492	0.736	0.723	0.714	0.407	0.395	0.378	0.361	0.356	0.372	0.312	0.347	0.347	0.244	0.421	0.232	0.37	0.419	0.318
NCI-H647	0.635	0.59	0.601	0.635	0.693	0.194	0.231	0.159	0.137	0.219	0.11	0.143	0.111	0.107	0.142	0.15	0.198	0.184	0.145	0.157
